Data published in patent US6737383B1, “Herbicidal oxadiazolidines” (priority 1999, dated 2004).

Tests used:
duck salad = test: Test B flood test duck salad; type: in vivo, Heteranthera limosa
Outline: (§1)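 Read-out is a visual response score from 0 (no effect) to 10 (complete control), assigned by comparison with untreated controls. Treatment was applied at the 2-leaf stage, and plants stayed in the greenhouse for twelve to sixteen days before scoring.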

rice = test: Test B flood test rice; type: in vivo, Oryza sativa
Outline: as §1

giant foxtail = test: Test B pre/postemergence giant foxtail; type: in vivo, Setaria faberii
Outline: (§2)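 Herbicidal effect was estimated by eye on a ten-point control scale after plants spent twelve to sixteen days in a greenhouse following soil or foliar treatment. Foliar sprays targeted plants at one to four leaves; all doses were formulated in a non-phytotoxic solvent with surfactant.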

morningglory = test: Test B pre/postemergence morningglory; type: in vivo, Ipomoea hederacea
Outline: as §2

[1] = Postemergence, Rate 62 g/ha, scale 0 to 10, 0 is no effect, 10 is complete control
[2] = Rate 125 g/ha, Postemergence section (flood test species), scale 0 to 10, 0 no effect, 10 complete control
[3] = Rate 500 g/ha, listed under Postemergence (flood test species), scale 0 to 10, 0 no effect, 10 complete control
[4] = flood test, listed under Postemergence, Rate 250 g/ha, scale 0 to 10, 0 no effect, 10 complete control
[5] = Postemergence, Rate 250 g/ha, scale 0 to 10, 0 no effect, 10 complete control
[6] = Preemergence, Rate 62 g/ha, scale 0 to 10 (0 no effect, 10 complete control)
[7] = Preemergence, Rate 125 g/ha, scale 0 to 10 (0 no effect, 10 complete control)
[8] = Preemergence, Rate 250 g/ha, scale of 0 to 10 where 0 is no effect and 10 is complete control
[9] = Preemergence, Rate 500 g/ha, scale 0 (no effect) to 10 (complete control)
[10] = Rate 125 g/ha, Postemergence, scale 0 to 10, 0 no effect, 10 complete control
[11] = Rate 500 g/ha, Postemergence, scale 0 to 10, 0 no effect, 10 complete control
[12] = Rate 62 g/ha, headed Pre-emergence (flood test species), scale 0 to 10 (0 no effect, 10 complete control)
[13] = Rate 125 g/ha, Pre-emergence, flood test species, scale 0 to 10 where 0 is no effect and 10 is complete control
[14] = Rate 250 g/ha, Pre-emergence, flood-test species, scale 0 to 10, 0 is no effect, 10 is complete control
[15] = Rate 500 g/ha, headed Pre-emergence (flood test species), scale 0 to 10 (0 no effect, 10 complete control)
[16] = Preemergence, Rate 62 g/ha, scale of 0 to 10 where 0 is no effect and 10 is complete control
[17] = Preemergence, Rate 125 g/ha, 0 is no effect, 10 is complete control
[18] = Preemergence, Rate 250 g/ha, scale 0 to 10, 0 is no effect, 10 is complete control
[19] = Preemergence, Rate 500 g/ha, scale of 0 to 10 where 0 is no effect and 10 is complete control
[20] = Rate 62 g/ha, Postemergence, scale of 0 to 10 where 0 is no effect and 10 is complete control
[21] = Rate 125 g/ha, Postemergence, scale 0 to 10
[22] = Rate 500 g/ha, Postemergence, scale 0 to 10
[23] = Rate 62 g/ha, flood test species, Pre-emergence, visual evaluation after twelve to sixteen days
[24] = Rate 125 g/ha, under heading Pre-emergence, flood test species, visual evaluation after twelve to sixteen days
[25] = Rate 250 g/ha, Pre-emergence (flood test species), scale 0 to 10, 0 is no effect, 10 is complete control
[26] = Rate 500 g/ha, Pre-emergence section of Table B, 0 to 10 scale (0 no effect, 10 complete control)
[27] = Postemergence, Rate 125 g/ha, scale of 0 to 10 where 0 is no effect and 10 is complete control
[28] = Postemergence, Rate 250 g/ha, scale of 0 to 10, 0 is no effect, 10 is complete control
[29] = Postemergence, Rate 500 g/ha, scale of 0 to 10 where 0 is no effect and 10 is complete control
[30] = Preemergence, Rate 125 g/ha, scale of 0 to 10 where 0 is no effect and 10 is complete control

CCN(C(=O)n1oc(=O)n(-c2c(C)cc(C)cc2C)c1=O)C1CCCCC1 [Compound 63]
Ducksalad plant response rating (duck salad; [1]): 0
Ducksalad plant response rating (duck salad; [2]): 0
Ducksalad plant response rating (duck salad; [3]): 0
Ducksalad plant response rating (duck salad; [4]): 0
Rice plant response rating (rice; [1]): 0
Rice plant response rating (rice; [2]): 0
Rice plant response rating (rice; [3]): 0
Rice plant response rating (rice; [4]): 0
Giant foxtail plant response rating (giant foxtail; [1]): 0
Giant foxtail plant response rating (giant foxtail; [5]): 0
Giant foxtail plant response rating (giant foxtail; [6]): 0
Plant response rating, Giant foxtail (giant foxtail; [7]): 0
Plant response rating, Giant foxtail (giant foxtail; [8]): 2
Giant foxtail plant response rating (giant foxtail; [9]): 3
Giant foxtail plant response rating (giant foxtail; [10]): 0
Giant foxtail plant response rating (giant foxtail; [11]): 2
Morningglory plant response rating (morningglory; [1]): 0
Morningglory plant response rating (morningglory; [5]): 4
Morningglory plant response rating (morningglory; [6]): 0
Plant response rating, Morningglory (morningglory; [7]): 0
Plant response rating, Morningglory (morningglory; [8]): 0
Morningglory plant response rating (morningglory; [9]): 0
Morningglory plant response rating (morningglory; [10]): 2
Morningglory plant response rating (morningglory; [11]): 4

C=CCn1c(=O)on(C(=O)N(c2ccc(F)cc2)C2CCC2)c1=O [Compound 194]
Ducksalad plant response rating (duck salad; [12]): 0
Ducksalad plant response rating (duck salad; [13]): 0
Ducksalad plant response rating (duck salad; [14]): 0
Plant response rating, Ducksalad (duck salad; [15]): 0
Rice plant response rating (rice; [12]): 0
Rice plant response rating (rice; [13]): 0
Rice plant response rating (rice; [14]): 0
Plant response rating, Rice (rice; [15]): 0
Giant foxtail plant response rating (giant foxtail; [16]): 3
Giant foxtail plant response rating (0 to 10 scale) (giant foxtail; [17]): 8
Giant foxtail plant response rating (giant foxtail; [18]): 8
Plant response rating, Giant foxtail (giant foxtail; [19]): 9
Giant foxtail plant response rating (giant foxtail; [20]): 0
Giant foxtail plant response rating (giant foxtail; [21]): 1
Plant response rating (0 to 10; 0 is no effect, 10 is complete control), Giant foxtail (giant foxtail; Rate 250 g/ha, Postemergence): 2
Giant foxtail plant response rating (giant foxtail; [22]): 2
Morningglory plant response rating (morningglory; [16]): 0
Morningglory plant response rating (0 to 10 scale) (morningglory; [17]): 0
Morningglory plant response rating (morningglory; [18]): 0
Plant response rating, Morningglory (morningglory; [19]): 0
Morningglory plant response rating (morningglory; [20]): 0
Morningglory plant response rating (morningglory; [21]): 0
Plant response rating (0 to 10; 0 is no effect, 10 is complete control), Morningglory (morningglory; Rate 250 g/ha, Postemergence): 1
Morningglory plant response rating (morningglory; [22]): 2

CC(C)N(C(=O)n1oc(=O)n(CC(C)[N+](=O)[O-])c1=O)c1ccccc1 (stereo not shown) [Compound 604]
Plant response rating, Ducksalad (0 to 10 scale, 0 is no effect, 10 is complete control) (duck salad; [23]): 0
Ducksalad plant response rating (0 to 10 scale, 0 is no effect, 10 is complete control) (duck salad; [24]): 0
Ducksalad plant response rating (duck salad; [25]): 0
Ducksalad plant response rating (duck salad; [26]): 0
Plant response rating, Rice (0 to 10 scale, 0 is no effect, 10 is complete control) (rice; [23]): 0
Rice plant response rating (0 to 10 scale, 0 is no effect, 10 is complete control) (rice; [24]): 0
Rice plant response rating (rice; [25]): 0
Rice plant response rating (rice; [26]): 0
Plant response rating, Giant foxtail (giant foxtail; [1]): 1
Plant response rating, Giant foxtail (giant foxtail; [27]): 2
Giant foxtail plant response rating (giant foxtail; [28]): 3
Plant response rating, Giant foxtail (giant foxtail; [29]): 4
Giant foxtail plant response rating (giant foxtail; [6]): 0
Giant foxtail plant response rating (giant foxtail; [30]): 2
Plant response rating, Giant foxtail (giant foxtail; [19]): 7
Plant response rating, Morningglory (morningglory; [1]): 0
Plant response rating, Morningglory (morningglory; [27]): 1
Morningglory plant response rating (morningglory; [28]): 2
Plant response rating, Morningglory (morningglory; [29]): 2
Morningglory plant response rating (morningglory; [6]): 0
Morningglory plant response rating (morningglory; [30]): 0
Plant response rating, Morningglory (morningglory; [19]): 0
